Experimental data published in patent publication US20260198498A1, “FUNGICIDAL COMPOSITIONS” (SYNGENTA CROP PROTECTION AG, priority 2022, published 2026).

How the values were obtained:
[1] = tested on: Glomerella lagenarium (Colletotrichum lagenarium); experiment: Example B5: Glomerella lagenarium (Colletotrichum lagenarium)/Liquid Culture (Anthracnose); assay type: cell-based; conditions: Colletotrichum orbiculare, liquid culture, photometrically 3 to 4 days after application, read-out: control of Glomerella lagenarium
Procedure: Example B5: Glomerella lagenarium (Colletotrichum lagenarium)/Liquid Culture (Anthracnose)
(§1) Conidia of the fungus from cryogenic storage are directly mixed into nutrient broth (PDB potato dextrose broth). After placing a (DMSO) solution of test compound into a microtiter plate (96-well format), the nutrient broth containing the fungal spores is added. The test plates are incubated at 24° C. and the inhibition of growth is measured photometrically 3 to 4 days after application.

[2] = tested on: Mycosphaerella graminicola (Septoria tritici); experiment: Example B21: Mycosphaerella graminicola (Septoria tritici)/Liquid Culture (Septoria Blotch); assay type: cell-based; conditions: Zymoseptoria tritici, liquid culture, photometrically 4-5 days after application, read-out: control of Mycosphaerella graminicola
Procedure: Example B21: Mycosphaerella graminicola (Septoria tritici)/Liquid Culture (Septoria Blotch)
as §1, with “determined” for “measured”, “4-5” for “3 to 4”

[3] = tested on: Pyrenophora teres; experiment: Example B18: Pyrenophora teres/Barley/Leaf Disc Preventative (Net Blotch); assay type: in vivo; conditions: foliar, barley leaf segments, inoculated 2 days after application
Procedure: Example B18: Pyrenophora teres/Barley/Leaf Disc Preventative (Net Blotch)
Barley leaf segments cv. Hasso are placed on agar in a multiwell plate (24-well format) and sprayed with the formulated test compound diluted in water. The leaf segments are inoculated with a spore suspension of the fungus 2 days after application. The inoculated leaf segments are incubated at 20° C. and 65% rh under a light regime of 12 h light/12 h darkness in a climate cabinet and the activity of a compound is assessed as disease control compared to untreated when an appropriate level of disease damage appears in untreated check leaf segments (5-7 days after application).

[4] = tested on: Monographella nivalis (Microdochium nivale); experiment: Example B12: Monographella nivalis (Microdochium nivale)/Liquid Culture (Foot Rot Cereals); assay type: cell-based; conditions: liquid culture, photometrically 4 to 5 days after application, read-out: control of Monographella nivalis
Procedure: Example B12: Monographella nivalis (Microdochium nivale)/Liquid Culture (Foot Rot Cereals)
as §1, with “is determined” for “is measured”, “photometrically 4” for “photometrically 3”, “to 5” for “to 4”

[5] = tested on: Mycosphaerella arachidis (Cercospora arachidicola); experiment: Example B13: Mycosphaerella arachidis (Cercospora arachidicola)/Liquid Culture (Early Leaf Spot); assay type: cell-based; conditions: liquid culture, photometrically 4 to 5 days after application, read-out: control of Mycosphaerella arachidis
Procedure: Example B13: Mycosphaerella arachidis (Cercospora arachidicola)/Liquid Culture (Early Leaf Spot)
as §1, with “is determined” for “is measured”, “photometrically 4” for “photometrically 3”, “to 5” for “to 4”

[6] = tested on: Botryotinia fuckeliana (Botrytis cinerea); experiment: Example B2: Botryotinia fuckeliana (Botrytis cinerea)/Liquid Culture (Gray Mould); assay type: cell-based; conditions: liquid culture, growth inhibition photometrically 3 to 4 days after application, read-out: control of Botryotinia fuckeliana
Procedure: Example B2: Botryotinia fuceliana (Botrytis cinerea)/Liquid Culture (Gray Mould)
as §1, with “(Vogels” for “(PDB potato dextrose”, “determined” for “measured”

[7] = tested on: Phaeosphaeria nodorum (Septoria nodorum); experiment: Example B11: Phaeosphaeria nodorum (Septoria nodorum)/Wheat/Leaf Disc Preventative (Glume Blotch); assay type: in vivo; conditions: Parastagonospora nodorum, foliar, wheat leaf segments, inoculated 2 days after application
Procedure: Example B11: Phaeosphaeria nodorum (Septoria nodorum)/Wheat/Leaf Disc Preventative (Glume Blotch)
Wheat leaf segments cv. Kanzler are placed on agar in a multiwell plate (24-well format) and sprayed with the formulated test compound diluted in water. The leaf disks are inoculated with a spore suspension of the fungus 2 days after application. The inoculated test leaf disks are incubated at 20° C. and 75% rh under a light regime of 12 h light/12 h darkness in a climate cabinet and the activity of a compound is assessed as percent disease control compared to untreated when an appropriate level of disease damage appears in untreated check leaf disks (5-7 days after application).

Cc1c(C2CN(C(=O)c3nnc(-c4ccc(F)cc4F)o3)Cc3ccccc32)cnn1C (centres unmarked) [X.01, [5-(2,4-difluorophenyl)-1,3,4-oxadiazol-2-yl]-[4-(1,5-dimethylpyrazol-4-yl)-3,4-dihydro-1H-isoquinolin-2-yl]methanone]
≥ 80%: inhibition of growth at 20 ppm [1] | inhibition of growth at 20 ppm [2] | pest or weed control at 200 ppm [3] | inhibition of growth at 20 ppm [4]

CCCc1nnc(C(=O)N2Cc3ccccc3C(c3cnn(C)c3C)C2)s1 (centres unmarked) [X.03, [4-(1,5-dimethylpyrazol-4-yl)-3,4-dihydro-1H-isoquinolin-2-yl]-(5-propyl-1,3,4-thiadiazol-2-yl)methanone]
≥ 80%: inhibition of growth at 20 ppm [1] | inhibition of growth at 20 ppm [5] | inhibition of growth at 20 ppm [2]

Cc1c(C2CN(C(=O)c3nnc(C4CCCCC4)s3)Cc3ccccc32)cnn1C (centres unmarked) [X.04, (5-cyclohexyl-1,3,4-thiadiazol-2-yl)-[4-(1,5-dimethylpyrazol-4-yl)-3,4-dihydro-1H-isoquinolin-2-yl]methanone]
≥ 80%: inhibition of growth at 20 ppm [1] | inhibition of growth at 20 ppm [5] | inhibition of growth at 20 ppm [2] | inhibition of growth at 20 ppm [4]

COc1ccc2c(c1)[C@@H](c1cnn(C)c1)CN(C(=O)c1cc(-c3ccc(F)cc3F)on1)[C@H]2C [X.05, [5-(2,4-difluorophenyl)isoxazol-3-yl]-[(1S,4S)-6-methoxy-1-methyl-4-(1-methylpyrazol-4-yl)-3,4-dihydro-1H-isoquinolin-2-yl]methanone]
≥ 80%: inhibition of growth at 20 ppm [6] | inhibition of growth at 20 ppm [5] | inhibition of growth at 20 ppm [2] | inhibition of growth at 20 ppm [4]

Cn1cc([C@]2(C)CN(C(=O)c3nnc(-c4ccc(F)cc4F)s3)Cc3ccccc32)cn1 [X.06, [5-(2,4-difluorophenyl)-1,3,4-thiadiazol-2-yl]-[(4R)-4-methyl-4-(1-methylpyrazol-4-yl)-1,3-dihydroisoquinolin-2-yl]methanone]
≥ 80%: inhibition of growth at 20 ppm [1] | inhibition of growth at 20 ppm [6] | inhibition of growth at 20 ppm [5] | inhibition of growth at 20 ppm [2] | pest or weed control at 200 ppm [3] | pest or weed control at 200 ppm [7] | inhibition of growth at 20 ppm [4]

Cn1cc(C2(C)CN(C(=O)c3nnc(-c4ccc(F)cc4F)s3)Cc3ccccc32)cn1 (centres unmarked) [X.07, [5-(2,4-difluorophenyl)-1,3,4-thiadiazol-2-yl]-[4-methyl-4-(1-methylpyrazol-4-yl)-1,3-dihydroisoquinolin-2-yl]methanone]
≥ 80%: inhibition of growth at 20 ppm [1] | inhibition of growth at 20 ppm [6] | inhibition of growth at 20 ppm [5] | inhibition of growth at 20 ppm [2] | inhibition of growth at 20 ppm [4]

CC(=O)c1c(C2CN(C(=O)c3cc(-c4ccc(F)cc4F)on3)Cc3ccccc32)cnn1C (centres unmarked) [X.08, 1-[4-[2-[5-(2,4-difluorophenyl)isoxazole-3-carbonyl]-3,4-dihydro-1H-isoquinolin-4-yl]-2-methyl-pyrazol-3-yl]ethanone]
≥ 80%: inhibition of growth at 20 ppm [1] | inhibition of growth at 20 ppm [5] | inhibition of growth at 20 ppm [2] | pest or weed control at 200 ppm [3] | inhibition of growth at 20 ppm [4]

COC(=O)C1c2ccccc2C(c2cnn(C)c2)CN1C(=O)c1cc(-c2ccc(F)cc2F)on1 (centres unmarked) [X.09, methyl 2-[5-(2,4-difluorophenyl)isoxazole-3-carbonyl]-4-(1-methylpyrazol-4-yl)-3,4-dihydro-1H-isoquinoline-1-carboxylate]
≥ 80%: inhibition of growth at 20 ppm [6] | inhibition of growth at 20 ppm [5] | inhibition of growth at 20 ppm [2] | pest or weed control at 200 ppm [7] | inhibition of growth at 20 ppm [4]

Cn1cc(C2CN(C(=O)c3nnc(-c4ccc(F)cc4)o3)Cc3ccccc32)cn1 (centres unmarked) [X.10, [5-(4-fluorophenyl)-1,3,4-oxadiazol-2-yl]-[4-(1-methylpyrazol-4-yl)-3,4-dihydro-1H-isoquinolin-2-yl]methanone]
≥ 80%: inhibition of growth at 20 ppm [1] | inhibition of growth at 20 ppm [2] | pest or weed control at 200 ppm [3] | pest or weed control at 200 ppm [7] | inhibition of growth at 20 ppm [4]

Cn1ncc(C2CN(C(=O)c3cc(-c4ccc(F)cc4F)on3)Cc3ccccc32)c1Cl (centres unmarked) [X.11, [4-(5-chloro-1-methyl-pyrazol-4-yl)-3,4-dihydro-1H-isoquinolin-2-yl]-[5-(2,4-difluorophenyl)isoxazol-3-yl]methanone]
≥ 80%: inhibition of growth at 20 ppm [1] | inhibition of growth at 20 ppm [6] | inhibition of growth at 20 ppm [5] | inhibition of growth at 20 ppm [2] | pest or weed control at 200 ppm [3] | pest or weed control at 200 ppm [7] | inhibition of growth at 20 ppm [4]

Cn1ncc(C2CN(C(=O)c3cc(-c4ccc(F)cc4F)on3)Cc3ccccc32)c1F (centres unmarked) [X.12, [5-(2,4-difluorophenyl)isoxazol-3-yl]-[4-(5-fluoro-1-methyl-pyrazol-4-yl)-3,4-dihydro-1H-isoquinolin-2-yl]methanone]
≥ 80%: inhibition of growth at 20 ppm [1] | inhibition of growth at 20 ppm [6] | inhibition of growth at 20 ppm [5] | inhibition of growth at 20 ppm [2] | pest or weed control at 200 ppm [3] | pest or weed control at 200 ppm [7] | inhibition of growth at 20 ppm [4]

Cn1cc(C2c3ccccc3CN(C(=O)c3cc(-c4ccc(F)cc4F)on3)C2(C)C)cn1 (centres unmarked) [X.13, [5-(2,4-difluorophenyl)isoxazol-3-yl]-[3,3-dimethyl-4-(1-methylpyrazol-4-yl)-1,4-dihydroisoquinolin-2-yl]methanone]
≥ 80%: inhibition of growth at 20 ppm [1] | inhibition of growth at 20 ppm [6] | inhibition of growth at 20 ppm [5] | inhibition of growth at 20 ppm [2] | pest or weed control at 200 ppm [3] | pest or weed control at 200 ppm [7] | inhibition of growth at 20 ppm [4]

Cc1nn(C)c(C)c1C1CN(C(=O)c2cc(-c3ccc(F)cc3F)on2)Cc2ncccc21 (centres unmarked) [X.15, [5-(2,4-difluorophenyl)isoxazol-3-yl]-[5-(1,3,5-trimethylpyrazol-4-yl)-6,8-dihydro-5H-1,7-naphthyridin-7-yl]methanone]
≥ 80%: inhibition of growth at 20 ppm [1] | inhibition of growth at 20 ppm [5] | inhibition of growth at 20 ppm [2] | pest or weed control at 200 ppm [3] | inhibition of growth at 20 ppm [4]

Cn1cc(C2CN(C(=O)c3cc(C4CCCCC4)no3)Cc3ccccc32)cn1 (centres unmarked) [X.18, (3-cyclohexylisoxazol-5-yl)-[4-(1-methylpyrazol-4-yl)-3,4-dihydro-1H-isoquinolin-2-yl]methanone]
≥ 80%: inhibition of growth at 20 ppm [1] | inhibition of growth at 20 ppm [5] | inhibition of growth at 20 ppm [2] | inhibition of growth at 20 ppm [4]

Cn1cc(C2CN(C(=O)c3nnc(-c4ccccc4)o3)Cc3ccccc32)cn1 (centres unmarked) [X.19, [4-(1-methylpyrazol-4-yl)-3,4-dihydro-1H-isoquinolin-2-yl]-(5-phenyl-1,3,4-oxadiazol-2-yl)methanone]
≥ 80%: inhibition of growth at 20 ppm [1] | inhibition of growth at 20 ppm [6] | inhibition of growth at 20 ppm [5] | inhibition of growth at 20 ppm [2] | inhibition of growth at 20 ppm [4]

Cn1cc(C2CN(C(=O)c3cc(-c4ccncc4)on3)Cc3ccccc32)cn1 (centres unmarked) [X.23, [4-(1-methylpyrazol-4-yl)-3,4-dihydro-1H-isoquinolin-2-yl]-[5-(4-pyridyl)isoxazol-3-yl]methanone]
≥ 80%: inhibition of growth at 20 ppm [2]

Cc1c(C2CN(C(=O)c3nnc(-c4ncc(F)cc4F)s3)Cc3ccccc32)cnn1C (centres unmarked) [X.28, [5-(3,5-difluoro-2-pyridyl)-1,3,4-thiadiazol-2-yl]-[4-(1,5-dimethylpyrazol-4-yl)-3,4-dihydro-1H-isoquinolin-2-yl]methanone]
≥ 80%: inhibition of growth at 20 ppm [1] | inhibition of growth at 20 ppm [5] | inhibition of growth at 20 ppm [2] | pest or weed control at 200 ppm [3] | pest or weed control at 200 ppm [7]
